Where only a bound is given, the exact number is not on record here.

In experiment [1] the test system is Leishmania mexicana amazonensis. In words: In vitro screening for anti-leishmanial activity: inhibition of 3H-thymidine incorporation by promastigotes. It is filed as cell-based. The settings on record: for IC50: PREVIOUS, Table III only. The protocol: Leishmania mexicana amazonensis, strain MHOM/BR/73/M2269 (WR669), promastigotes were grown to early log phase in Schneider's Drosophila Medium (GIBCO) supplemented with 20% heat-inactivated fetal bovine serum GIBCO) and 100 ug/ml gentamicin sulfate [Parasitology 76:309 (1978)]. The assay medium was Schneider's plus 10% fetal bovine serum. Serial dilutions of the compounds of use in the present invention were suspended in the assay medium an prepared in duplicate rows of a 96-well microtiter plate. Parasite suspension (200 ul) at 2.5×10^6 cells/ml was added to each well and each plate was sealed and incubated under air at 25° C. After 24 hours, [methyl-3H] thymidine (20 Ci/mmol) was added to yield 1-2 uCi/well. After an additional 18 hours, the cells were harvested with a Skatron cell harvester onto glass microfiber filters. The filter disks were washed and dried and counted using a Beckman LS3801 scintillation counter. The data on uptake of ^3 H-thymidine was fitted to a logistic-logarithmic concentration response function by a non-linear regression method and the drug concentrations required to inhibit 50% incorporation of ^3 H-thymidine were determined [Antimicrob. Agents Chemother. 16:710 (1979); Exper. Parasitol. 66:86 (1988)].
In general terms: Incorporation of labelled thymidine or its analogues reports DNA synthesis.

In experiment [2] the test system is Preumocystis carinii pneumonia. The settings on record: especially immunocompromised patients suffering from AIDS; cited from earlier work.
Another experiment concerns trypanosomiasis. Particulars: in vivo; cited from earlier work.
The next experiment relates to leishmaniasis. Particulars: Reviews of Infectious Diseases 10(3):576-577; Experimental Parasitology 52:409 (1981); cited from earlier work.

On to `CN1CCN=C1c1ccc(OCCCCCOc2ccc(C3=NCCN3C)cc2)cc1` [Example 16], for which the IC50 in experiment [1] was greater than 4.5 µM.

As for `N=C(N)c1ccc(OCCCCCCOc2ccc(C(=N)N)cc2)cc1` [Example 9, hexamidine], the “anti-Leishmania activity (in words)” value in experiment [1] was “high-degree of anti-Leishmania activity”.

`COc1cc(C2=NCCN2)ccc1OCCCOc1ccc(C2=NCCN2)cc1OC` [Example 17]: in experiment [1] (Leishmania mexicana), the half-inhibitory concentration (IC50) is greater than 4.5 µM.

Molecule `c1cc(C2=NCCN2)ccc1OCCCCCOc1ccc(C2=NCCN2)cc1` [Example 15] had an IC50 in experiment [1] (Leishmania mexicana) of 0.67 µM.

On to `N=C(N)c1ccc(NCCCCCNc2ccc(C(=N)N)cc2)cc1` [Example 8], for which the “anti-Leishmania activity (in words)” value in experiment [1] is listed as “high-degree of anti-Leishmania activity”.

As to `N=C(N)c1ccc(OCCCCCOc2ccc(C(=N)N)cc2)cc1` [Example 4, pentamidine], the “usefulness in treatment of Preumocystis carinii pneumonia (in words)” value in experiment [2] was “extremely useful in the treatment of Preumocystis carinii pneumonia”. Also, the “usefulness for treatment of trypanosomiasis (in words)” value in the experiment with trypanosomiasis was “useful for the treatment of trypanosomiasis”. Besides, the “anti-Leishmania activity (in words)” value in experiment [1] was “moderately effective against Leishmania”. Also, the “utility for treating leishmaniasis (in words)” value in the experiment on leishmaniasis is recorded as “limited utility for the purpose of treating leishmaniasis”.

As a reminder, the IC50 is the concentration that inhibits the measured activity by half.

These data come from patent US5202320A, “Method for treating leishmaniasis” (priority 1989, dated 1993).
